The source of these data is patent US11820773B2, “Tricyclic compounds” (ALIGOS THERAPEUTICS, INC., priority 2020, dated 2023).

Each structure is given as a SMILES string.

The first experiment deals with HBV. Nature of the experiment: HBV-DNA antiviral assay using HepG2.117 cells (intracellular HBV DNA by qPCR). The experiment is classed as cell-based, genotype D HBV. The settings on record: HBV DNA inhibition, 3 days incubation, 2% DMSO. Summed up:
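Endpoints are intracellular HBV DNA by qPCR (interpolated from a gBlock standard curve) and ATP-based viability in duplicate plates. Doxycycline-free HepG2.117 Tet-off cells received compounds (9 concentrations, 4-fold steps, 2% DMSO) for 3 days. Inhibition normalised to DMSO wells; EC50/EC90/CC50 by curve fitting.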
With `Cn1cnnc1-c1ccc(-n2c(=O)c3c(n4ncc(Cc5ccccc5)c24)CN(C(=O)c2ccc(Br)c(Cl)c2)CC3)cc1` [Compound 9, 5-benzyl-12-(4-bromo-3-chloro-benzoyl)-7-[4-(4-methyl-1,2,4-triazol-3-yl)phenyl]-2,3,7,12-tetrazatricyclo[7.4.0.0^2,6]trideca-1(9),3,5-trien-8-one], the EC50 is below 0.05 µM.

The same experiment, now with this note: Hepatitis B virus, 72 h, HBV DNA inhibition, 3 days incubation, 2% DMSO.
As to `Cc1ccn(-c2ccc(-n3c(=O)c4c(n5ncc(CC(C)C)c35)CN(C(=O)c3ccc(Br)c(C(F)(F)F)c3)[C@@H](C)C4)cc2)n1` (stereo in doubt) [Compound 100b, rac-(11S)-12-[4-bromo-3-(trifluoromethyl)benzoyl]-5-isobutyl-11-methyl-7-[4-(3-methylpyrazol-1-yl)phenyl]-2,3,7,12-tetrazatricyclo[7.4.0.0^2,6]trideca-1(9),3,5-trien-8-one], the EC50 was in the range of 0.5 to 5 µM.
Still for that read-out and setting: with `C[C@H]1Cc2c(n3ncc(CC4CC4)c3n(-c3ccc(-c4nncn4C)cc3)c2=O)CN1C(=O)c1ccc(Br)c(C(F)(F)F)c1` (stereo in doubt) [Compound 40b, rac-(11S)-12-[4-bromo-3-(trifluoromethyl)benzoyl]-5-(cyclopropylmethyl)-11-methyl-7-[4-(4-methyl-1,2,4-triazol-3-yl)phenyl]-2,3,7,12-tetrazatricyclo[7.4.0.0^2,6]trideca-1(9),3,5-trien-8-one] the figure was 0.05 to 0.5 µM; with `Cc1nnc(-c2ccc(-n3c(=O)c4c(n5ncc(CC(C)C)c35)CN(C(=O)c3ccc(Br)c(C(F)(F)F)c3)[C@H](C)C4)cc2)[nH]1` (stereo in doubt) [Compound 59a, rac-(11R)-12-[4-bromo-3-(trifluoromethyl)benzoyl]-5-isobutyl-11-methyl-7-[4-(5-methyl-4H-1,2,4-triazol-3-yl)phenyl]-2,3,7,12-tetrazatricyclo[7.4.0.0^2,6]trideca-1(9),3,5-trien-8-one], below 0.05 µM.
The same measure, in the same setting: with `C[C@H]1Cc2c(n3ncc(Cc4ccccc4)c3n(-c3ccc(-c4nnc(C(F)(F)F)[nH]4)cc3)c2=O)CN1C(=O)c1ccc(Br)c(C(F)(F)F)c1` (stereo in doubt) [Compound 74b, rac-(11S)-5-benzyl-12-[4-bromo-3-(trifluoromethyl)benzoyl]-11-methyl-7-[4-[5-(trifluoromethyl)-4H-1,2,4-triazol-3-yl]phenyl]-2,3,7,12-tetrazatricyclo[7.4.0.0^2,6]trideca-1(9),3,5-trien-8-one] the figure was 0.05 to 0.5 µM; with `Cc1nn[nH]c1-c1ccc(-n2c(=O)c3c(n4ncc(CC5CC5)c24)CN(C(=O)c2ccc(Br)c(C(F)(F)F)c2)[C@@H](C)C3)cc1` (stereo in doubt) [Compound 75b, rac-(11S)-12-[4-bromo-3-(trifluoromethyl)benzoyl]-5-(cyclopropylmethyl)-11-methyl-7-[4-(4-methyl-1H-triazol-5-yl)phenyl]-2,3,7,12-tetrazatricyclo[7.4.0.0^2,6]trideca-1(9),3,5-trien-8-one], 0.05 to 0.5 µM; with `CNC(=O)c1ccc(-n2c(=O)c3c(n4ncc(Cc5ccccc5)c24)CN(C(=O)c2ccc(Br)c(C(F)F)c2)CC3)cc1` [Compound 3, 4-[5-benzyl-12-[4-bromo-3-(difluoromethyl)benzoyl]-8-oxo-2,3,7,12-tetrazatricyclo[7.4.0.0^2,6]trideca-1(9),3,5-trien-7-yl]-N-methyl-benzamide], below 0.05 µM.
Still for that read-out and setting: with `Cc1nnc(-c2ccc(-n3c(=O)c4c(n5ncc(Cc6ccccc6)c35)CN(C(=O)c3ccc(Br)c(Cl)c3)[C@H](C)C4)cc2)[nH]1` (stereo in doubt) [Compound 53a, rac-(11R)-5-benzyl-12-(4-bromo-3-chloro-benzoyl)-11-methyl-7-[4-(5-methyl-4H-1,2,4-triazol-3-yl)phenyl]-2,3,7,12-tetrazatricyclo[7.4.0.0^2,6]trideca-1(9),3,5-trien-8-one] the figure was below 0.05 µM; with `CC(C)Cc1cnn2c3c(c(=O)n(-c4ccc5c(c4)ncn5C)c12)C[C@H](C)N(C(=O)c1ccc(Br)c(C(F)(F)F)c1)C3` (stereo in doubt) [Compound 86b, rac-(11S)-12-[4-bromo-3-(trifluoromethyl)benzoyl]-5-isobutyl-11-methyl-7-(1-methylbenzimidazol-5-yl)-2,3,7,12-tetrazatricyclo[7.4.0.0^2,6]trideca-1(9),3,5-trien-8-one], 0.05 to 0.5 µM; with `C[C@H]1Cc2c(n3ncc(Cc4ccccc4)c3n(-c3ccc(-c4nc(=O)on4C)cc3)c2=O)CN1C(=O)c1ccc(Br)c(C(F)(F)F)c1` (stereo in doubt) [Compound 44b, 2-methyl-3-[4-[rac-(11S)-5-benzyl-12-[4-bromo-3-(trifluoromethyl)benzoyl]-11-methyl-8-oxo-2,3,7,12-tetrazatricyclo[7.4.0.0^2,6]trideca-1(9),3,5-trien-7-yl]phenyl]-1,2,4-oxadiazol-5-one], below 0.05 µM.
As to `CC(C)[C@H](N)C(=O)OCN(C)C(=O)c1ccc(-n2c(=O)c3c(n4ncc(CC5CC5)c24)CN(C(=O)c2ccc(Br)c(C(F)(F)F)c2)[C@@H](C)C3)cc1` [Compound 90, [[4-[(11S)-12-[4-bromo-3-(trifluoromethyl)benzoyl]-5-(cyclopropylmethyl)-11-methyl-8-oxo-2,3,7,12-tetrazatricyclo[7.4.0.0^2,6]trideca-1(9),3,5-trien-7-yl]benzoyl]-methylamino]methyl (2S)-2-amino-3-methyl-butanoate], the EC50 was above 5 µM.
In turn, `Cc1cnn(-c2ccc(-n3c(=O)c4c(n5ncc(CC(C)C)c35)CN(C(=O)c3ccc(Br)c(C(F)(F)F)c3)[C@H](C)C4)cc2)c1` (stereo in doubt) [Compound 98a, rac-(11R)-12-[4-bromo-3-(trifluoromethyl)benzoyl]-5-isobutyl-11-methyl-7-[4-(4-methylpyrazol-1-yl)phenyl]-2,3,7,12-tetrazatricyclo[7.4.0.0^2,6]trideca-1(9),3,5-trien-8-one] registered an EC50 below 0.05 µM.
On the same count and under the same terms, with `CNC(=O)c1ccc(-n2c(=O)c3c(n4ncc(CC(C)C)c24)CN(C(=O)c2ccc(Br)c(Cl)c2)[C@H](C)C3)cc1` (stereo in doubt) [Compound 55a, N-methyl-4-[rac-(11R)-12-(4-bromo-3-chloro-benzoyl)-5-isobutyl-11-methyl-8-oxo-2,3,7,12-tetrazatricyclo[7.4.0.0^2,6]trideca-1(9),3,5-trien-7-yl]benzamide] the figure was below 0.05 µM; with `Cc1cnn(-c2ccc(-n3c(=O)c4c(n5ncc(CC(C)C)c35)CN(C(=O)c3ccc(Br)c(C(F)(F)F)c3)[C@@H](C)C4)cc2)n1` (stereo in doubt) [Compound 99b, rac-(11S)-12-[4-bromo-3-(trifluoromethyl)benzoyl]-5-isobutyl-11-methyl-7-[4-(4-methyltriazol-2-yl)phenyl]-2,3,7,12-tetrazatricyclo[7.4.0.0^2,6]trideca-1(9),3,5-trien-8-one], 0.5 to 5 µM; with `C#CCc1cnn2c3c(c(=O)n(-c4ccc(C(=O)NC)cc4)c12)CCN(C(=O)c1ccc(Br)c(C(F)(F)F)c1)C3` [Compound 42, 4-[12-[4-bromo-3-(trifluoromethyl)benzoyl]-8-oxo-5-prop-2-ynyl-2,3,7,12-tetrazatricyclo[7.4.0.0^2,6]trideca-1(9),3,5-trien-7-yl]-N-methyl-benzamide], below 0.05 µM.
In turn, `Cc1nnc(-c2ccc(-n3c(=O)c4c(n5ncc(CC(C)C)c35)CN(C(=O)c3ccc(Cl)c(C(F)(F)F)c3)[C@@H](C)C4)cc2)[nH]1` (stereo in doubt) [Compound 65b, rac-(11S)-12-[4-chloro-3-(trifluoromethyl)benzoyl]-5-isobutyl-11-methyl-7-[4-(5-methyl-4H-1,2,4-triazol-3-yl)phenyl]-2,3,7,12-tetrazatricyclo[7.4.0.0^2,6]trideca-1(9),3,5-trien-8-one] came in with an EC50 of 0.5 to 5 µM.
As to `CCC[C@@H]1Cc2c(n3ncc(Cc4ccccc4)c3n(-c3ccc4c(NC)n[nH]c4c3)c2=O)CN1C(=O)c1ccc(Br)c(C(F)(F)F)c1` (stereo in doubt) [Compound 88a, rac-(11R)-5-benzyl-12-[4-bromo-3-(trifluoromethyl)benzoyl]-7-[3-(methylamino)-1H-indazol-6-yl]-11-propyl-2,3,7,12-tetrazatricyclo[7.4.0.0^2,6]trideca-1(9),3,5-trien-8-one], the EC50 is below 0.05 µM.
Same read-out and setting: with `C[C@H]1Cc2c(n3ncc(Cc4ccccc4)c3n(-c3ccc(-n4ccc(C(F)(F)F)n4)cc3)c2=O)CN1C(=O)c1ccc(Br)c(C(F)(F)F)c1` (stereo in doubt) [Compound 70b, rac-(11S)-5-benzyl-12-[4-bromo-3-(trifluoromethyl)benzoyl]-11-methyl-7-[4-[3-(trifluoromethyl)pyrazol-1-yl]phenyl]-2,3,7,12-tetrazatricyclo[7.4.0.0^2,6]trideca-1(9),3,5-trien-8-one] the figure was 0.5 to 5 µM.
On the same count and under the same terms, with `Cc1nn[nH]c1-c1cc(-n2c(=O)c3c(n4ncc(Cc5ccccc5)c24)CN(C(=O)c2ccc(Br)c(C(F)(F)F)c2)[C@@H](C)C3)nn1C` (stereo in doubt) [Compound 83b, rac-(11S)-5-benzyl-12-[4-bromo-3-(trifluoromethyl)benzoyl]-11-methyl-7-[1-methyl-5-(4-methyl-1H-triazol-5-yl)pyrazol-3-yl]-2,3,7,12-tetrazatricyclo[7.4.0.0^2,6]trideca-1(9),3,5-trien-8-one] the figure was 0.05 to 0.5 µM; with `C[C@H]1Cc2c(n3ncc(Cc4ccccc4)c3n(-c3ccc(-c4nn(C)c(=O)[nH]4)cc3)c2=O)CN1C(=O)c1ccc(Br)c(C(F)(F)F)c1` (stereo in doubt) [Compound 82b, rac-(11S)-5-benzyl-12-[4-bromo-3-(trifluoromethyl)benzoyl]-11-methyl-7-[4-(1-methyl-5-oxo-4H-1,2,4-triazol-3-yl)phenyl]-2,3,7,12-tetrazatricyclo[7.4.0.0^2,6]trideca-1(9),3,5-trien-8-one], 0.05 to 0.5 µM.
